We go through 20 compounds from ChEMBL document CHEMBL3297706, “Design, synthesis and evaluation of phenethylaminoheterocycles as K(v)1.5 inhibitors” (Bioorg Med Chem Lett, 2014).

Series [1] is described as follows: Volume of distribution at steady state in Sprague-Dawley rat at 10 umol/kg, via carotid artery by LC-MS method. The series is classed as ADME, organism-based. The note with it: in vivo, read-out: Vdss.
For series [2], the system named is Plasma. Briefly: Plasma concentration in rabbit at 10 mg/kg. In kind it is ADME, organism-based, Oryctolagus cuniculus. Details: dose 10 mg/kg. Particulars: in vivo.
Series [3] is described as follows: Half life in Sprague-Dawley rat at 10 umol/kg, via carotid artery by LC-MS method. In kind it is ADME, organism-based. Particulars: in vivo.
Series [4] relates to Oryctolagus cuniculus. The experiment in a line: Anti-atrial fibrillation in rabbit assessed as atrial effective refractory period prolongation at 10 mg/kg. The series is classed as functional, Cardiac atrium.
A short description of series [5]: Clearance in Sprague-Dawley rat at 10 umol/kg, via carotid artery by LC-MS method. The note with it: in vivo. The series is classed as ADME, organism-based.
In series [6] the test system is Oryctolagus cuniculus. The experiment in a line: Anti-atrial fibrillation in rabbit assessed as ventricular effective refractory period prolongation at 10 mg/kg. The series is classed as functional.
In series [7] the target is T1, Potassium voltage-gated channel subfamily A member 5 (Homo sapiens, UniProt P22460). The experiment in a line: Inhibition of human Kv1.5 expressed in mouse L929 cells assessed as inhibition of current. In kind it is cell-based.
T1 sequence (P22460 whole entry): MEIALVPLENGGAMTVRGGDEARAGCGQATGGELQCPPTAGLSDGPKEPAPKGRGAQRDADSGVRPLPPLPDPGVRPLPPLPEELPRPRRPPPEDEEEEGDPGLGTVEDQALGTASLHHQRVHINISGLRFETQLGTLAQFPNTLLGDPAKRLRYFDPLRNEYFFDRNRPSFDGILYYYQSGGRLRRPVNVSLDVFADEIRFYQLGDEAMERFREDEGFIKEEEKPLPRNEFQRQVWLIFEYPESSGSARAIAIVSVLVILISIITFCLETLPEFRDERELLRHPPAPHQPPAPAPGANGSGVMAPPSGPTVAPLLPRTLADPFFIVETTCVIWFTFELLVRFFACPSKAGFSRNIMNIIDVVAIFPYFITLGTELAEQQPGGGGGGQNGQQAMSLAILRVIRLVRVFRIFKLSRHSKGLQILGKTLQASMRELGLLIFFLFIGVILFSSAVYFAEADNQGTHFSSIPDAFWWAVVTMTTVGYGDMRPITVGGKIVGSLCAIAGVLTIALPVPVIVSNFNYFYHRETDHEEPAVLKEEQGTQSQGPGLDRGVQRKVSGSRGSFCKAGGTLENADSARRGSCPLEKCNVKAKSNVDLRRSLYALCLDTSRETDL
Series [8] in a line: Plasma protein binding in rabbit. The series is classed as ADME, cell-free, Oryctolagus cuniculus. The note with it: read-out: PPB (converted).
The target in a further series is hERG (KCNH2) (Homo sapiens, UniProt Q12809). Briefly: Inhibition of human ERG at 10 uM.
Chain of hERG (KCNH2) (Q12809 whole entry): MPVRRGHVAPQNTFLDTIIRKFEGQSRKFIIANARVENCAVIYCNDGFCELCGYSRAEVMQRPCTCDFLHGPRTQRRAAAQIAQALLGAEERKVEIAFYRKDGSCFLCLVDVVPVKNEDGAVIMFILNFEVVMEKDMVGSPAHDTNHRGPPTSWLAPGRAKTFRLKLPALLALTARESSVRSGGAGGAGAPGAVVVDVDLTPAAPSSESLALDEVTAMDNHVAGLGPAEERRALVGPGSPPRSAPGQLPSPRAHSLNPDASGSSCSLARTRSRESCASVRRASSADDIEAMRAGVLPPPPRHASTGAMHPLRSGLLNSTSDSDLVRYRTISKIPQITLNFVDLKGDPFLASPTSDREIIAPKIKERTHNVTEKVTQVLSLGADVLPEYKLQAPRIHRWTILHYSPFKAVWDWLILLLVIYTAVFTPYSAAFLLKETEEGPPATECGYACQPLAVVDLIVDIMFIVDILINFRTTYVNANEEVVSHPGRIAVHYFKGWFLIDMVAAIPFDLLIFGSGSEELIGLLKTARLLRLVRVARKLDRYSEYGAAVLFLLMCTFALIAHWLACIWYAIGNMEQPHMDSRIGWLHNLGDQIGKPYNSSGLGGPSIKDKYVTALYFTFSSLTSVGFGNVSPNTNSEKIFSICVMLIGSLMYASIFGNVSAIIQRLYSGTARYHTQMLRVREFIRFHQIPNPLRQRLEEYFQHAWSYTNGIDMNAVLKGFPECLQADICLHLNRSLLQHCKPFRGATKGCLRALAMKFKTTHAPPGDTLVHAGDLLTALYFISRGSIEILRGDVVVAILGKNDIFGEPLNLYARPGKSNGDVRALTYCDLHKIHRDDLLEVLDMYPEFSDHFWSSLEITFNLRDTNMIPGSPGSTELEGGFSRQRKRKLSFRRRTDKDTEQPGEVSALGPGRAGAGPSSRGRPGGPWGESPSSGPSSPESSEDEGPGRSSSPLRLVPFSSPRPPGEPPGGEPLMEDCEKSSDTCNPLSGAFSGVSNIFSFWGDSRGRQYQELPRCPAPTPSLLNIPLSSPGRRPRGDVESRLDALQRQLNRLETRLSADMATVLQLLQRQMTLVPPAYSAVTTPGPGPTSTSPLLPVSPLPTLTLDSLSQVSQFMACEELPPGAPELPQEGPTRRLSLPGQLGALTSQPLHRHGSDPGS
For series [9], the system named is Oryctolagus cuniculus. The experiment in a line: Anti-atrial fibrillation in rabbit assessed as atrial effective refractory period prolongation at 1 mg/kg. In kind it is functional, Cardiac atrium.
The test system of series [10] is Plasma. Briefly: Plasma concentration in rabbit at 1 mg/kg. In kind it is ADME, organism-based, Oryctolagus cuniculus. Set-up: dose 1 mg/kg. Particulars: in vivo.
A short description of series [11]: Permeability across apical to basolateral side in human Caco2 cells. In kind it is ADME, cell-based. The note with it: Caco-2, read-out: permeability. Background: Caco-2 monolayers are a common model of the intestinal barrier.
The nature of series [12]: Permeability of the compound by PAMPA. The series is classed as ADME. The note with it: read-out: permeability.
Series [13] addresses T1, Potassium voltage-gated channel subfamily A member 5. The experiment in a line: Inhibition of human Kv1.5 expressed in mouse L929 cells assessed as inhibition of current at 0.3 uM. The series is classed as cell-based.
Series [14] deals with Oryctolagus cuniculus. Briefly: Anti-atrial fibrillation in rabbit assessed as atrial effective refractory period prolongation at 3 mg/kg. In kind it is functional, Cardiac atrium.
Series [15] deals with Oryctolagus cuniculus. Briefly: Anti-atrial fibrillation in rabbit assessed as decrease in blood pressure at 3 mg/kg. The series is classed as functional.
The subject of series [16] is Oryctolagus cuniculus. The experiment in a line: Anti-atrial fibrillation in rabbit assessed as increase in heart rate at 3 mg/kg. In kind it is functional.
In series [17] the test system is Oryctolagus cuniculus. Briefly: Anti-atrial fibrillation in rabbit assessed as decrease in blood pressure at 1 mg/kg. In kind it is functional.
Series [18] has as its system Plasma. The experiment in a line: Plasma concentration in rabbit at 3 mg/kg. The series is classed as ADME, organism-based, Oryctolagus cuniculus. Details: dose 3 mg/kg. Particulars: in vivo.
Series [19] relates to Oryctolagus cuniculus. The experiment in a line: Anti-atrial fibrillation in rabbit assessed as increase in heart rate at 1 mg/kg. The series is classed as functional.
The species named for series [20] is Oryctolagus cuniculus. Briefly: Anti-atrial fibrillation in rabbit assessed as atrial effective refractory period prolongation. In kind it is functional, organism-based. Particulars: Cardiac atrium.

The source made the active and inactive calls. The calls are words filed in the database; no cut-off is given here.

With `COc1cccc2onc(NCC(C)(C)c3ccccc3)c12`, the Vd in series [1] amounted to 3.7 L/kg. The same compound registered a concentration in the series on Plasma [2] of 8200 nM. For the same compound, in [3], the half-life (as a rule, the time in which the quantity being followed falls by half) was 2.4 h. Besides, the Activity in the series on Oryctolagus cuniculus [4] and with Oryctolagus cuniculus [6] was less than 5% throughout. For the same compound, the clearance (commonly a measure of how efficiently the substance is removed, as volume per time) in series [5] was determined as 22 mL/min/kg. In addition, the half-maximal inhibitory concentration (IC50) – broadly, the concentration needed to halve the response being measured – in series [7] was 43 nM. Moreover, the fraction unbound in [8] is less than 0.001.
Turning to `COc1cccc2ncnc(NCC(C)(C)c3ccccc3)c12`, the inhibition – broadly, the drop in the measured response relative to a control, in per cent – at 10 µM at hERG (KCNH2) stood at 90%. Moreover, in series [7], the IC50 came to 118 nM.
On to `COc1cccc2c1c(NCC(C)(C)c1ccccc1)nn2C`, for which the Vd in series [1] was 1.7 L/kg. The inhibition at 10 µM at hERG (KCNH2) is 69%. The Activity in the series with Oryctolagus cuniculus [9] is listed as 6%. In the series with Plasma [10], the concentration amounted to 300 nM. The same compound gave a half-life in series [3] of 2.1 h. Also, the Papp A→B in series [11] is 2.3 ×10⁻⁶ cm/s. The clearance in series [5] came to 12 mL/min/kg. Further, the IC50 in series [7] is 198 nM. Besides, the fraction unbound in [8] was less than 0.001.
Take `COc1cccc2c1C(NCC(C)(C)c1ccccc1)=NC2=O`: in [1], the Vd amounted to 1.1 L/kg. On hERG (KCNH2), this compound returned an inhibition at 10 µM of 46%. This compound also showed a half-life in series [3] of 0.8 h. Moreover, the Papp in series [12] came to 79 ×10⁻⁶ cm/s. The Papp A→B in series [11] was 27 ×10⁻⁶ cm/s. The clearance in [5] was 35 mL/min/kg. Further, the IC50 in [7] turned out to be 84 nM.
As for `COc1cccc2onc(N(C)CC(C)(C)c3ccccc3)c12`, the IC50 in series [7] is 187 nM.
As for `CCNC(=O)O[C@H]1CC[C@](CNc2nn(C)c3cccc(OC)c23)(c2ccccc2)CC1`, in [1], the Vd is 0.6 L/kg. The compound also registered an inhibition at 10 µM on hERG (KCNH2) of 54%. Besides, in series [3], the half-life was 1.4 h. Also, in [5], the clearance amounted to 8 mL/min/kg. Moreover, in series [7], the IC50 was determined as 88 nM.
Regarding `CC(C)(CNc1noc2ccccc12)c1ccccc1`, in series [11], the Papp A→B came out at 11.6 ×10⁻⁶ cm/s. In [7], the IC50 stood at 784 nM.
Consider `COc1ccc2onc(NCC(C)(C)c3ccccc3)c2c1`, for which the inhibition in series [13] is 37%.
In the case of `CCNC(=O)O[C@H]1CC[C@](CNc2n[nH]c3cccc(OC)c23)(c2ccccc2)CC1`, the Activity with Oryctolagus cuniculus [14] was 22%; with Oryctolagus cuniculus [9], 15%; in the series on Oryctolagus cuniculus [16], 16%; with Oryctolagus cuniculus [19], 5%; in the series listed under Oryctolagus cuniculus [20], “Dose-dependent effect”. Besides, in [1], the Vd was found to be 1.4 L/kg. The inhibition at 10 µM against hERG (KCNH2) was found to be 52%. The inhibition in vivo (as a rule, the percentage by which the read-out fell short of the control) at 3 mg/kg in the series with Oryctolagus cuniculus [15] worked out at 17%. Also, the figures for the concentration in the series on Plasma [10] and in the series on Plasma [18] were 700 nM and 2400 nM, respectively. Also, the inhibition in vivo at 1 mg/kg in the series with Oryctolagus cuniculus [17] was found to be 7%. In addition, the half-life in series [3] was 1.3 h. The Papp in series [12] is 67 ×10⁻⁶ cm/s. This compound came in with a clearance in series [5] of 21 mL/min/kg. The result in the series on Oryctolagus cuniculus [6] was inactive. In addition, the 50% inhibitory concentration (IC50) in [7] came to 138 nM. Also, in series [8], the fraction unbound was 0.003.
Regarding `COc1cccc2ccnc(NCC(C)(C)c3ccccc3)c12`, in [1], the Vd stood at 14 L/kg. The compound also had an inhibition at 10 µM against hERG (KCNH2) of 99%. For the same compound, the half-life in [3] was 1.8 h. This compound also showed a clearance in series [5] of 124 mL/min/kg. Moreover, the IC50 in series [7] stood at 22 nM.
In the case of `CCc1cccc2onc(NCC(C)(C)c3ccccc3)c12`, the IC50 in series [7] is 219 nM.
With `COc1cccc2c1c(NCC(C)(C)c1ccccc1)nn2C(C)C`, in series [13], the inhibition turned out to be 42%.
`COc1cccc2nc(Cl)nc(NCC(C)(C)c3ccccc3)c12` returned an inhibition at 10 µM against hERG (KCNH2) of 90%. For the same compound, the 50% inhibitory concentration (IC50) in series [7] turned out to be 73 nM.
Regarding `CC(C)(CNc1noc2cccc(Cl)c12)c1ccccc1`, the inhibition in series [13] came out at 33%.
In the case of `COc1cccc2[nH]nc(NCC(C)(C)c3ccccc3)c12`, in [13], the inhibition is 37%. For the same compound, the Papp A→B in series [11] was 9.4 ×10⁻⁶ cm/s.
Regarding `COc1cccc2oc(=O)nc(NCC(C)(C)c3ccccc3)c12`, in series [1], the Vd came out at 0.7 L/kg. In addition, the inhibition at 10 µM at hERG (KCNH2) amounted to 66%. Besides, the half-life in series [3] is 0.8 h. Also, the Papp in series [12] came to 69.5 ×10⁻⁶ cm/s. Further, in series [5], the clearance turned out to be 10 mL/min/kg. Besides, the IC50 in series [7] amounted to 197 nM.
For the compound `COc1cccc2snc(NCC(C)(C)c3ccccc3)c12`, the Vd in [1] amounted to 3.9 L/kg. Further, testing at 10 µM against hERG (KCNH2) gave an inhibition of 68%. The compound further gave a half-life in series [3] of 1.8 h. For the same compound, the clearance in series [5] came to 28 mL/min/kg. The IC50 in [7] is 25 nM.
In the case of `CC(C)(CNc1noc2cccc(O)c12)c1ccccc1`, the IC50 in [7] was found to be 262 nM.
For `COc1cccc2nc(O)nc(NCC(C)(C)c3ccccc3)c12`, 10 µM produced 50% inhibition against hERG (KCNH2). The Papp in [12] was 81.6 ×10⁻⁶ cm/s. Further, the IC50 in series [7] was found to be 23 nM.
`COc1ccc2c(NCC(C)(C)c3ccccc3)noc2c1`: in [13], the inhibition stood at 21%. In [11], the Papp A→B came out at 3.6 ×10⁻⁶ cm/s.
